Measured values reported in patent US20140113899A1 (priority 2011, published 2014).
Read-outs that look alike come from different tables or passages of the source.

Columns and labels:
Glomerella cingulata = experiment: Test Example 4: in vitro antimicrobial activity test with bixafen and Compound I-1; assay type: cell-based
Rhizoctonia solani = experiment: Test Example 18: in vitro antimicrobial activity test with chlorothalonil and Compound I-1; assay type: cell-based
Pythium aphanidermatum = experiment: Test Example 19: in vitro antimicrobial activity test with metalaxyl and Compound I-1; assay type: cell-based
[1] = test system: Pseudocercoporella herpotrichoides; experiment: Test Example 16: in vitro antimicrobial activity test with thiophanate-methyl and Compound I-1; assay type: cell-based
Fusarium graminearum [2] = assay type: in vivo
Microdocum nivale [3] = experiment: Test Example 9: in vitro antimicrobial activity test with benodanil and Compound I-1
Method: (§1) In the test, a flora disk of 4 mm in diameter was cut from an area around a colony of Microdocum nivale pre-cultured in advance in a pre-culture PDA medium, and Microdocum nivale was inoculated on the PDA medium where chemical agents were mixed. After culturing at 25° C. for 3 days, a diameter of a grown colony was measured. Then, a mycelial growth inhibition ratio was calculated by comparing the diameter of this grown colony with a diameter of a colony on a medium without the chemical agents. As in Test Example 1, a cooperative effect was judged by use of Colby's formula.

Botrytis cinere = experiment: Test Example 11: in vitro antimicrobial activity test with azoxystrobin and Compound I-1; assay type: cell-based
Text: Then, a mycelial growth inhibition ratio against Botrytis cinere was obtained.

Microdocum nivale [4] = experiment: Test Example 10: in vitro antimicrobial activity test with penthiopyrad and Compound I-1
Method: as §1
Then, a mycelial growth inhibition ratio against Microdocum nivale was obtained.

Alternaria alternata = experiment: Test Example 15: in vitro antimicrobial activity test with fenpropimorph and Compound I-1; assay type: cell-based
Text: Then, a mycelial growth inhibition ratio against Alternaria alternata was obtained.

Gaeumannomyces graminis = experiment: Test Example 13: in vitro antimicrobial activity test with prochloraz and Compound I-1; assay type: cell-based
Text: Then, a mycelial growth inhibition ratio against Gaeumannomyces graminis was obtained.

Fusarium graminearum [5] = assay type: in vivo; settings: wettable powder containing only the compound, 500 mg/L, sprayed at 1,000 L/ha; fourth to seventh days after inoculation
Puccinia recondida = experiment: Test Example 7: controlling effect of isopyrazam and Compound I-1 on wheat brown rust; assay type: in vivo
Method: Isopyrazam and Compound I-1 were mixed at a given ratio and a test for a cooperative effect against wheat brown rust was carried out. First, a chemical suspension containing isopyrazam and Compound I-1 were prepared and sprayed on a pot of a wheat plant at two leaves stage so that thus sprayed isopyrazam and Compound I-1 became a predetermined dosage. Then, after the pot was left for approximately one hour at a room temperature so that the plant body dries, Puccinia recondida was inoculated by spraying an urediniospore suspended solution (1×10^5/ml) of Puccinia recondida. Then, the pot was kept in a wet chamber at 20° C. for 15 hours, and after 14 days, onset of disease was examined by a disease-onset area index. Here, the test was conducted by use of one plot pot.

Microdocum nivale [6] = experiment: Test Example 14: in vitro antimicrobial activity test with prothioconazole and Compound I-1
Fusarium graminearum [7] = assay type: in vivo; remark: listed apart in the source
Fusarium graminearum [8] = assay type: in vivo; remark: listed apart in the source
Fusarium graminearum [9] = assay type: in vivo; settings: Fluopyram 20 g/ha alone
Fusarium graminearum [10] = assay type: in vivo; settings: Furametpyr 20 g/ha alone
Pyricularia oryzae [11] = assay type: cell-based
Pyricularia oryzae [12] = assay type: cell-based; remark: listed apart in the source
[13] = compound 25 g/ha alone (Metconazole 0 g/ha)
[14] = compound 50 g/ha alone (Metconazole 0 g/ha)
[15] = compound 75 g/ha alone (Metconazole 0 g/ha)

## C[C@@]1(CCl)CC[C@H](Cc2ccc(Cl)cc2)[C@@]1(O)Cn1cncn1 (racemic) [Compound I-1, (1RS,2SR,5SR)-5-(4-chlorobenzyl)-2-chloromethyl-2-methyl-1-(1H-1,2,4-triazole-1-ylmethyl)cyclopentanol]
Glomerella cingulata; Compound (I) 0.005 ppm alone
  Mycelial Growth Inhibition Ratio % Measured Value: 13%
Glomerella cingulata; Compound (I) 0.02 ppm alone
  Mycelial Growth Inhibition Ratio % Measured Value: 23%
Rhizoctonia solani; Compound I-1 1.25 ppm alone
  Mycelial Growth Inhibition Ratio % Measured Value: 68%
Pythium aphanidermatum; Compound I-1 0.005 ppm alone
  Mycelial Growth Inhibition Ratio % Measured Value: 9%
[1]; Compound I-1 0.078 ppm alone
  Mycelial Growth Inhibition Ratio % Measured Value: 3%
[1]; Compound I-1 0.313 ppm alone
  Mycelial Growth Inhibition Ratio % Measured Value: 42%
Fusarium graminearum [2]; Compound (I) 4 g/ha alone
  Actual Protective Value: 9.4
Fusarium graminearum [2]; Compound (I) 8 g/ha alone
  Actual Protective Value: 12.9
Microdocum nivale [3]; Compound I-1 0.078 ppm alone
  Mycelial Growth Inhibition Ratio % Measured Value: 8%
Botrytis cinere; Compound I-1 0.02 ppm alone
  Mycelial Growth Inhibition Ratio % Measured Value: 25%
Botrytis cinere; Compound I-1 0.078 ppm alone
  Mycelial Growth Inhibition Ratio % Measured Value: 47%
Microdocum nivale [4]; Compound I-1 0.005 ppm alone
  Mycelial Growth Inhibition Ratio % Measured Value: 5%
Microdocum nivale [4]; Compound I-1 0.02 ppm alone
  Mycelial Growth Inhibition Ratio % Measured Value: 10%
Microdocum nivale [4]; Compound I-1 0.078 ppm alone
  Mycelial Growth Inhibition Ratio % Measured Value: 12%
Alternaria alternata; Compound I-1 0.02 ppm alone
  Mycelial Growth Inhibition Ratio % Measured Value: 3%
Alternaria alternata; Compound I-1 0.078 ppm alone
  Mycelial Growth Inhibition Ratio % Measured Value: 24%
Alternaria alternata; Compound I-1 0.313 ppm alone
  Mycelial Growth Inhibition Ratio % Measured Value: 50%
Gaeumannomyces graminis; Compound I-1 0.02 ppm alone
  Mycelial Growth Inhibition Ratio % Measured Value: 0%
Gaeumannomyces graminis; Compound I-1 0.078 ppm alone
  Mycelial Growth Inhibition Ratio % Measured Value: 17%
Gaeumannomyces graminis; Compound I-1 0.313 ppm alone
  Mycelial Growth Inhibition Ratio % Measured Value: 74%
Fusarium graminearum [5]
  protective value: ≥ 90%
Puccinia recondida; Compound I-1 0.1875 g/ha alone
  Actual Protective Value: 13
Puccinia recondida; Compound I-1 0.375 g/ha alone
  Actual Protective Value: 37
Puccinia recondida; Compound I-1 0.75 g/ha alone
  Actual Protective Value: 67
Puccinia recondida; Compound I-1 1.5 g/ha alone
  Actual Protective Value: 80
Puccinia recondida; Compound I-1 3 g/ha alone
  Actual Protective Value: 93
Microdocum nivale [6]; Compound I-1 0.078 ppm alone
  Mycelial Growth Inhibition Ratio % Measured Value: 8%
Microdocum nivale [6]; Compound I-1 0.313 ppm alone
  Mycelial Growth Inhibition Ratio % Measured Value: 34%

## C[C@]1(CCl)CC[C@@H](Cc2ccc(F)cc2)[C@]1(O)Cn1cncn1 (racemic) [Compound I-11, (1RS,2SR,5 SR)-2-chloromethyl-5-(4-fluorobenzyl)-2-methyl-1-(1H-1,2,4-triazole-1-ylmethyl)cyclopentanol]
Fusarium graminearum [7]; [13]
  Actual Protective Value: 25.6
Fusarium graminearum [7]; [14]
  Actual Protective Value: 56.7
Fusarium graminearum [7]; [15]
  Actual Protective Value: 66.7

## C[C@]1(CCl)CC[C@@H](Cc2ccccc2)[C@]1(O)Cn1cncn1 (racemic) [Compound I-12, (1RS,2SR,5SR)-2-chloromethyl-5-benzyl-2-methyl-1-(1H-1,2,4-triazole-1-ylmethyl)cyclopentanol]
Fusarium graminearum [7]; [13]
  Actual Protective Value: 40.0
Fusarium graminearum [7]; [14]
  Actual Protective Value: 65.6
Fusarium graminearum [7]; [15]
  Actual Protective Value: 75.6

## CO/C=C(/C(=O)OC)c1ccccc1Oc1cc(Oc2ccccc2C#N)ncn1 [Azoxystrobin]
Botrytis cinere; Azoxystrobin 0.1575 ppm alone
  Mycelial Growth Inhibition Ratio % Measured Value: 41%
Botrytis cinere; Azoxystrobin 0.63 ppm alone
  Mycelial Growth Inhibition Ratio % Measured Value: 60%
Botrytis cinere; Azoxystrobin 2.5 ppm alone
  Mycelial Growth Inhibition Ratio % Measured Value: 69%
Botrytis cinere; Azoxystrobin 10 ppm alone
  Mycelial Growth Inhibition Ratio % Measured Value: 71%

## O=C(Nc1ccccc1)c1ccccc1I [Benodanil]
Microdocum nivale [3]; Benodanil 0.0393 ppm alone
  Mycelial Growth Inhibition Ratio % Measured Value: 0%
Microdocum nivale [3]; Benodanil 0.1575 ppm alone
  Mycelial Growth Inhibition Ratio % Measured Value: 0%
Microdocum nivale [3]; Benodanil 0.63 ppm alone
  Mycelial Growth Inhibition Ratio % Measured Value: 0%
Microdocum nivale [3]; Benodanil 2.5 ppm alone
  Mycelial Growth Inhibition Ratio % Measured Value: 0%
Microdocum nivale [3]; Benodanil 10 ppm alone
  Mycelial Growth Inhibition Ratio % Measured Value: 4%

## Cn1cc(C(=O)Nc2ccc(F)cc2-c2ccc(Cl)c(Cl)c2)c(C(F)F)n1 [Bixafen]
Glomerella cingulata; Bixafen 0.0393 ppm alone
  Mycelial Growth Inhibition Ratio % Measured Value: 5%
Glomerella cingulata; Bixafen 0.1575 ppm alone
  Mycelial Growth Inhibition Ratio % Measured Value: 7%
Glomerella cingulata; Bixafen 0.63 ppm alone
  Mycelial Growth Inhibition Ratio % Measured Value: 7%
Glomerella cingulata; Bixafen 2.5 ppm alone
  Mycelial Growth Inhibition Ratio % Measured Value: 16%
Glomerella cingulata; Bixafen 10 ppm alone
  Mycelial Growth Inhibition Ratio % Measured Value: 38%

## O=C(Nc1ccccc1-c1ccc(Cl)cc1)c1cccnc1Cl [Boscalid]
Fusarium graminearum [8]; Boscalid 20 g/ha alone
  Actual Protective Value: 0
Fusarium graminearum [8]; Boscalid 40 g/ha alone
  Actual Protective Value: 4
Fusarium graminearum [8]; Boscalid 60 g/ha alone
  Actual Protective Value: 15
Fusarium graminearum [8]; Boscalid 80 g/ha alone
  Actual Protective Value: 8

## N#Cc1c(Cl)c(Cl)c(Cl)c(C#N)c1Cl [Chlorothalonil]
Rhizoctonia solani; Chlorothalonil 0.0393 ppm alone
  Mycelial Growth Inhibition Ratio % Measured Value: 0%
Rhizoctonia solani; Chlorothalonil 0.1575 ppm alone
  Mycelial Growth Inhibition Ratio % Measured Value: 15%
Rhizoctonia solani; Chlorothalonil 0.63 ppm alone
  Mycelial Growth Inhibition Ratio % Measured Value: 74%
Rhizoctonia solani; Chlorothalonil 2.5 ppm alone
  Mycelial Growth Inhibition Ratio % Measured Value: 84%
Rhizoctonia solani; Chlorothalonil 10 ppm alone
  Mycelial Growth Inhibition Ratio % Measured Value: 98%

## OC(CC1CC1(Br)Br)(Cn1cncn1)C1(Cl)CC1 (stereo not drawn) [Compound XVII-2, 2-(1-chlorocyclopropyl)-1-(2,2-dibromocyclopropyl)-3-(1H-1,2,4-triazole-1-yl)propane-2-ol]
Fusarium graminearum [5]
  protective value: ≥ 90%

## CC(Cc1ccc(C(C)(C)C)cc1)CN1C[C@@H](C)O[C@@H](C)C1 (stereo partly drawn) [Fenpropimorph]
Alternaria alternata; Fenpropimorph 0.0393 ppm alone
  Mycelial Growth Inhibition Ratio % Measured Value: 0%
Alternaria alternata; Fenpropimorph 0.1575 ppm alone
  Mycelial Growth Inhibition Ratio % Measured Value: 0%

## O=C(NCCc1ncc(C(F)(F)F)cc1Cl)c1ccccc1C(F)(F)F [Fluopyram]
Fusarium graminearum [9]
  Actual Protective Value: 0

## Cc1nn(C)c(Cl)c1C(=O)Nc1cccc2c1C(C)OC2(C)C (stereo not drawn) [Furametpyr]
Fusarium graminearum [10]
  Actual Protective Value: 0

## CC(C)C1CCC(Cc2ccc(Cl)cc2)C1(O)Cn1cncn1 (stereo not drawn) [Ipconazole]
Pyricularia oryzae [11]; Ipconazole 0.0393 ppm alone
  Mycelial Growth Inhibition Ratio % Measured Value: 11%
Pyricularia oryzae [11]; Ipconazole 0.1575 ppm alone
  Mycelial Growth Inhibition Ratio % Measured Value: 33%
Pyricularia oryzae [11]; Ipconazole 0.63 ppm alone
  Mycelial Growth Inhibition Ratio % Measured Value: 72%

## CC(C)C1C2CCC1c1c(NC(=O)c3cn(C)nc3C(F)F)cccc12 (stereo not drawn) [Isopyrazam]
Puccinia recondida; Isopyrazam 3.125 g/ha alone
  Actual Protective Value: 57

## COCC(=O)N(c1c(C)cccc1C)C(C)C(=O)OC (stereo not drawn) [Metalaxyl]
Pythium aphanidermatum; Metalaxyl 0.0393 ppm alone
  Mycelial Growth Inhibition Ratio % Measured Value: 3%
Pythium aphanidermatum; Metalaxyl 0.1575 ppm alone
  Mycelial Growth Inhibition Ratio % Measured Value: 7%
Pythium aphanidermatum; Metalaxyl 0.63 ppm alone
  Mycelial Growth Inhibition Ratio % Measured Value: 12%
Pythium aphanidermatum; Metalaxyl 2.5 ppm alone
  Mycelial Growth Inhibition Ratio % Measured Value: 14%
Pythium aphanidermatum; Metalaxyl 10 ppm alone
  Mycelial Growth Inhibition Ratio % Measured Value: 25%

## CC1(C)CCC(Cc2ccc(Cl)cc2)C1(O)Cn1cncn1 (stereo not drawn) [Metconazole]
Fusarium graminearum [7]; Metconazole 10 g/ha alone
  Actual Protective Value: 13.9
Fusarium graminearum [7]; Metconazole 20 g/ha alone
  Actual Protective Value: 26.7

## CC(C)CC(C)c1sccc1NC(=O)c1cn(C)nc1C(F)(F)F (stereo not drawn) [Penthiopyrad]
Microdocum nivale [4]; Penthiopyrad 0.0393 ppm alone
  Mycelial Growth Inhibition Ratio % Measured Value: 2%
Microdocum nivale [4]; Penthiopyrad 0.1575 ppm alone
  Mycelial Growth Inhibition Ratio % Measured Value: 2%
Microdocum nivale [4]; Penthiopyrad 0.63 ppm alone
  Mycelial Growth Inhibition Ratio % Measured Value: 2%
Microdocum nivale [4]; Penthiopyrad 2.5 ppm alone
  Mycelial Growth Inhibition Ratio % Measured Value: 7%
Microdocum nivale [4]; Penthiopyrad 10 ppm alone
  Mycelial Growth Inhibition Ratio % Measured Value: 36%

## CCCN(CCOc1c(Cl)cc(Cl)cc1Cl)C(=O)n1ccnc1 [Prochloraz]
Gaeumannomyces graminis; Prochloraz 0.0393 ppm alone
  Mycelial Growth Inhibition Ratio % Measured Value: 12%
Gaeumannomyces graminis; Prochloraz 0.1575 ppm alone
  Mycelial Growth Inhibition Ratio % Measured Value: 69%
Gaeumannomyces graminis; Prochloraz 0.63 ppm alone
  Mycelial Growth Inhibition Ratio % Measured Value: 98%

## OC(Cc1ccccc1Cl)(Cn1nc[nH]c1=S)C1(Cl)CC1 (stereo not drawn) [Prothioconazole]
Microdocum nivale [6]; Prothioconazole 0.1575 ppm alone
  Mycelial Growth Inhibition Ratio % Measured Value: 11%
Microdocum nivale [6]; Prothioconazole 0.63 ppm alone
  Mycelial Growth Inhibition Ratio % Measured Value: 34%
Microdocum nivale [6]; Prothioconazole 2.5 ppm alone
  Mycelial Growth Inhibition Ratio % Measured Value: 76%

## COC(=O)N(OC)c1ccccc1COc1ccn(-c2ccc(Cl)cc2)n1 [Pyraclostrobin]
Fusarium graminearum [2]; Pyraclostrobin 10 g/ha alone
  Actual Protective Value: 10.6
Fusarium graminearum [2]; Pyraclostrobin 20 g/ha alone
  Actual Protective Value: 23.5
Fusarium graminearum [2]; Pyraclostrobin 30 g/ha alone
  Actual Protective Value: 36.5

## CC(C)(C)C(O)(CCc1ccc(Cl)cc1)Cn1cncn1 (stereo not drawn) [Tebuconazole]
Pyricularia oryzae [12]; Tebuconazole 0.0393 ppm alone
  Mycelial Growth Inhibition Ratio % Measured Value: 3%
Pyricularia oryzae [12]; Tebuconazole 0.1575 ppm alone
  Mycelial Growth Inhibition Ratio % Measured Value: 12%
Pyricularia oryzae [12]; Tebuconazole 0.63 ppm alone
  Mycelial Growth Inhibition Ratio % Measured Value: 50%

## COC(=O)NC(=S)Nc1ccccc1NC(=S)NC(=O)OC [Thiophanate-methyl]
[1]; Thiophanate-methyl 0.0393 ppm alone
  Mycelial Growth Inhibition Ratio % Measured Value: 0%
[1]; Thiophanate-methyl 0.1575 ppm alone
  Mycelial Growth Inhibition Ratio % Measured Value: 0%
[1]; Thiophanate-methyl 0.63 ppm alone
  Mycelial Growth Inhibition Ratio % Measured Value: 52%
